Reference: patent US7074925B1, “N-substituted derivatives of 5-oxyiminobarbituric acid” (priority 1998, dated 2006)
Marks after values point to notes of the source that are not given here.

Experiments:
[1] = system: Human's platelet aggregation; test: Antiaggregational properties, ADP-induced platelet aggregation; format: cell-based; settings: Homo sapiens, Platelet, ADP 2.5 μmol/l
Source text: Human's platelet aggregation was investigated in plasma of healthy 50±3 years donors that was enriched by thrombocytes, by means of aggregometer FRM-1. […] Magnitude of a maximum non-reversible platelet aggregation in the control samples (solvent) was adopted as 100%, and that in tested samples was counted as the percentage compared to the control.

[2] = system: primary culture of human lymphocytes (IFN-α production); test: Interferon-inducing activity in primary culture of human lymphocytes; format: cell-based
Protocol: Interferon synthesis induction caused by the claimed compounds was conducted on a primary culture of human lymphocytes (it is these cells in a human organism that are the main producers of interferons). To obtain lymphocyte culture, fresh blood (within 12 hours after sampling) from healthy donors (not of group II) was used. To separate lymphocytes, heparinized blood obtained from healthy donor was centrifuged in a density gradient of ficoll-verografin of […] in order to extract a fraction of immunocompetent cells. This fraction was selected and diluted with the nutrient medium RPMI-1640, containing 5% of fetal calf serum, 0.3 mg/ml of L-glutamin, 100 un/ml of penicillin, and […] of streptomycin. The concentration of lymphocytes was considered after dying them with methylene blue and calculation of cell number in Goryaev chamber. Initial solutions of the claimed compounds were diluted with the nutrient medium RPMI-1640 so that the final concentrations of the compounds, which were obtained after introduction of lymphocyte suspension, constituted the raw: 100 μg/ml, 10 μg/ml, 1 μg/ml. The final concentration of lymphocytes in the induction mixture was 3×10^6 cell/ml.
In parallels to the test samples the following controls were done: • 1). Control of spontaneous production of interferons (IFN) by lymphocytes. • 2). […] Control of spontaneous production of interferons in presence of DMSO taken in an amount corresponding to the test samples.
Control and test samples were incubated for 24 hours at the temperature of 37° C. After incubation, the samples were centrifuged at 2,000 G to deposit cell elements, and IFN-containing supernatant was separate out of samples; then the supernatant was analyzed for the quantitative content of IFN. Cell deposition was resuspended in the previous volume of nutrient medium, coloured with vital dye trypan blue, and cell number was counted in the Goryaev chamber (as described above) to determine cytotoxic action of the compounds. The quantitative determination of content of IFN in control and test samples was conducted using the immunoenzyme test system Pro Con IF2 Plus, that is intended for determination of IFN-α, which is produced by TOO “Protein contour”. The solid-phase immunoenzyme method, utilizing horse radish peroxidase as an indicator enzyme, was used to determine the quantity of interferon in the samples. Activity of the bonded peroxidase was measured using an automatic photometer for microplates with a microprocessor at the wavelength of 450 nm.
Based on the obtained results, a calibrating curve was formed, which allows to obtain data expressed in international units (IU) of activity, using the microprocessor of the automatic photometer. The results of the analysis are expressed in IU of activity of IFN per ml in the given induction system, which contains 3×10^4 lymphocyte/ml. Each test and control point was investigated in four parallels.
Controls of immunoenzyme reaction: • 1. Control of DMSO with a nutrient medium. • 2. Control of system components (according to an instruction).
The obtained data were undergone a statistical analysis using t-criterion, and calculation of the confident interval of probability at p=0.05 was carried out. Coincidence of results in the parallel tests was analyzed.

[3] = system: C.trachomatis D323; test: Action on Chlamydia trachomatis in cell culture; format: cell-based; settings: 100 mg/l; for Number of unchanged cells: 48 hours, counted in 100 visual fields, cell control 8.000, infected cells 6.000
Protocol: The antimicrobial activity of the claimed compounds was studied relative to C.trachomatis […], which is a standard strain from the collection of the chair of microbiology of St. Petersburg State Pavlov Medical University. […] Cell cultures McCoy and L929 obtained from the Institute of Cytology of RAS were used in this work. Cells were grown in flasks made of neutral glass in the medium RPMI-1640 with the addition of 10% of fetal calf serum. The test was performed in glass (non-toxic) flat-bottom flasks with cover glasses. The cells were introduced into the medium in the final concentration of […]. […] Simultaneously, tested compounds in a final concentration of 100 mg/l were added to the cells. The sample was centrifuged at 2400 G during 60 minutes at room temperature and incubated at 37° C. for 2 hours. […] The samples were doubled using the medium without cycloheximide so as to exclude its effect on the investigated compounds. The samples were incubated in a CO2-incubator for 48 hours. […] The effect of the action of substance was determined by analysis of the monolayer state and number of cells with CPI when compared with the control (cell culture infected with C.trachomatis […]); in doing so, the number of unchanged cells, that were counted in 100 visual fields obtained using the special net of the microscope eyepiece, was taken into consideration. […] Control of cell culture: morphology of cells and state of monolayer correspond to the given type of the cells; control of chlamydia growth in the cell culture: presence of CPI in the monolayer; control of action of standard antimicrobial agent: reduction of number of CPI in the monolayer as compared to the previous control; control of toxicity of the claimed compounds: toxicity is absent; control of action of solvents: toxic action on cells is absent.

[4] = system: Herpes virus of the type I (HSV-I/Leningrad/248/88); test: Effect on Herpes virus, cytopathogenic action on Vero cells; format: cell-based, Herpes Simplex virus; settings: for Quantity of the unchanged cells (number of cells in 100 visual fields): Vero cells, 36 hours, cell control 10000; for percentage of protection of cells from virus: compared to the control of cell culture
Protocol: An antiviral activity was determined with respect to Herpes virus of the type I (HSV-I/Leningrad/248/88) by means of commonly accepted method. Viruses were grown on a continuous culture of Vero cells that have been received from the Bank of Cell Cultures of the Institute of Cytology of the Russian Academy of Science.
A virus in a final concentration of […] and the claimed compounds dissolved in DMSO in final concentrations of 100, 10 and 1 mg/l were added to cells that were grown on the RPMI-1640 medium with 10% fetal calf serum and placed into wells of the 96-well plate. 5 separate wells were used for each of tested concentrations of an agent. The plate was incubated during 60 minutes at 38° C. in a CO2-incubator. After the incubation, the virus was removed and then a fresh medium containing claimed compounds in used concentrations was again introduced.
Results were evaluated basing on presence of cytopathogenic action on the cells after 36 hours of incubation at 38° C. in the CO2-incubator.
The next controls were used in the experiment: • 1. Control of cell culture (capability to grow properly) • 2. Control of the virus (evaluation of capability for reproduction) • 3. Control of an antiviral activity of an antiviral drug Acyclovir • 4. Control of compounds (toxicity of compounds) • 5. Control of a solvent (DMSO) for toxicity.
To estimate a cytopathic action of the virus, a quantity of the unchanged cells was calculated in 100 visual fields formed by a special net of an eyepiece of the inverted microscope.

[5] = Antiulcerous action, water immersion stress with immobilization; format: in vivo, rats; settings: 20 mg/kg perorally
Protocol: Antiulcerous activity of substances was tested on a model of experimental water immersion stress with immobilization. […] After that, gastric mucous membrane was investigated, number and sizes of ulcers were counted, ulceration index was determined (an average sum of ulcer lengths per one animal in a group).

[6] = Hypoglycemic activity after glucose load; format: in vivo, mice; settings: Glibenclamide I mg/kg
Protocol: Test substance (100 mg/kg) was perorally administrated to fasted mice, and, immediately after that, solution of glucose (1000 mg/kg) was administrated subcutaneously. Glucose content in blood was determined in a hour by the orthotoluidine method. Reducing of glucose level by more than 20% relative to control animals indicated hypoglycemic properties. Glibenclamide (I mg/kg) was utilized as a reference agent.

Compound | Content of IFN in induction mixture after 24-hour incubation ([2]; substance 1 mg/l) [IU/3 × 10^4 lymph./ml] | Content of IFN in induction mixture after 24-hour incubation ([2]; substance 10 mg/l) [IU/3 × 10^4 lymph./ml] | Content of IFN in induction mixture after 24-hour incubation ([2]; substance 100 mg/l) [IU/3 × 10^4 lymph./ml] | percentage of cell protection from infection [3] | Number of unchanged cells [3] | Quantity of the unchanged cells (number of cells in 100 visual fields) ([4]; compound 100 μg/ml) | percentage of protection of cells from virus ([4]; compound 100 μg/ml) | further results
CC(=O)Oc1ccccc1C(=O)O [Aspirin, aspirin, reference compound] |  |  |  |  |  |  |  | inhibition at 9 µg/mL ([1]; 9 μg/ml): 100%
O=C1NC(=S)N(c2ccc(Cl)cc2)C(=O)C1=NO [XLVI] | 6.6 ± 0.8 | 24.4 ± 1.4 | 52.1 ± 1.8 |  |  |  |  | 
CCOc1ccc(N2C(=O)NC(=O)C(=NO)C2=O)cc1 [XXX] |  |  |  | (35%) | 6.700 | 3000 | (30%) | 
O=C1NC(=O)N(CCC2=CCCCC2)C(=O)C1=NO [X] | 8.6 ± 1.0 | 11.0 ± 1.2 | 30 ± 1.8 |  |  |  |  | 
CN(C)CCCN1c2ccccc2Sc2ccc(Cl)cc21 [Chlorpromazine, reference compound] |  |  |  |  |  |  |  | % of animals with ulcers ([5]; rats, 4 hours stress, control 100): 33%; % of reducing number of ulcers ([5]; versus control): −96%; % of reducing ulceration index ([5]; versus control): −97%; Number of lesions ([5]; control 8.3 ± 2.5): 0.3 ± 0.3; ulceration index ([5]; control 10.5 ± 5.7): 0.3 ± 0.3
Nc1nc2c(ncn2COCCO)c(=O)[nH]1 [Acyclovir, reference compound] |  |  |  |  |  |  |  | Quantity of the unchanged cells (number of cells in 100 visual fields) ([4]; Acyclovir): 8000*; percentage of protection of cells from virus ([4]; Acyclovir): (80%)**
O=C1NC(=O)N(CCc2ccc(F)cc2)C(=O)C1=NO [XV] |  |  |  |  |  | 4000 | (40%) | 
Cc1ccccc1N1C(=O)NC(=O)C(=NO)C1=O [XX] |  |  |  |  |  | 3500 | (35%) | 
CC(C)(C)N1C(=O)NC(=O)C(=NO)C1=O [III] | 4.2 ± 0.8 | 23.5 ± 1.2 | 65 ± 1.2 | (50%) | 7.000 | 5000 | (50%) | 
COc1ccc(CN2C(=O)NC(=O)C(=NO)C2=O)cc1 [XIII] |  |  |  | (50%) | 7.000 | 4500 | (45%) | 
O=C1NC(=O)N(c2cccc3ccccc23)C(=O)C1=NO [XXXIV] |  |  |  | (35%) | 6.700 |  |  | 
CCN1C(=O)C(=NO)C(=O)NC1=S [XXXVI] | 5.2 ± 1.0 | 6.8 ± 1.5 | 26.0 ± 1.4 |  |  |  |  | 
C=CCN1C(=O)C(=NO)C(=O)NC1=S [XXXIX] |  |  |  | (65%) | 7.300 |  |  | 
Nc1ncnc2c1ncn2[C@@H]1O[C@H](CO)[C@@H](O)[C@H]1O [Adenosine, reference compound] |  |  |  |  |  |  |  | inhibition at 5 µg/mL ([1]; 5 μg/ml): 100%
COc1ccc(Cl)cc1C(=O)NCCc1ccc(S(=O)(=O)NC(=O)NC2CCCCC2)cc1 [Glibenclamide, reference compound] |  |  |  |  |  |  |  | % change of glucose relative to glucose control [6]: −40%; Glucose in blood ([6]; glucose 1000 mg/kg s.c., after one hour): 4.95 ± 0.31 mmol/L
O=C1NC(=O)N(Cc2ccccc2)C(=O)C1=NO [XI] | 32.8 ± 1.0 | 53.5 ± 1.2 | 60 ± 1.8 |  |  | 3500 | (35%) | 
O=C1NC(=O)N(Cc2ccc(F)cc2)C(=O)C1=NO [XII] |  |  |  | (30%) | 6.600 | 4000 | (40%) | 
CC(Cc1ccccc1)N1C(=O)NC(=O)C(=NO)C1=O (stereo not drawn) [XVII] | 6.2 ± 0.5 | 13.0 ± 2.5 | 19.2 ± 1.2 | (35%) | 6.700 |  |  | 
